Measured values from patent EP2592085B1, “Thiazolo[3,2-a][1,3]diazepine derivatives and pharmaceutical compositions containing the same as anticonvulsant agents and method for their preparation” (King Saud University, priority 2011, dated 2013).

Assays:
Swiss albino mice [1] = test: animal or person; type: in vivo; conditions: for ED50: Mus musculus, ip, PTZ, median effective dose, log-probit method; for % Protection: PTZ 100 mg/kg i.p. given 30 min after compound i.p., dose SGH-35 200 mg/kg (0.78 mmol/kg), SGH-40 100 mg/kg (0.38 mmol/kg), 4 animals; for PI: male, Swiss albino, mouse, in vivo
Description: (§1) Adult male Swiss albino mice (22-28 g), approximately 10-week old, were used to conduct the anticonvulsant evaluation. They were housed in cages and kept at a temperature of 20 ± 2°C and a relative humidity of 55 ± 5% with a light-dark cycle of 12 h and fed with standard diet and water ad libitum. Compounds of the formula 1 have been dissolved in dimethylsulfoxide and administered at dose levels of 25, 50, 100 and 200 mgl/kg intraperitoneal (i.p.). Sodium valproate was freshly dissolved in 0.9 % NaCl and used at dose level of 200 mg/kg (1.38 mmol/kg) i.p., 30 min after the test compounds as a positive control. A control group of mice was included and received intraperitoneal (i.p.) injections of the test compounds' vehicle. […] Picrotoxin (pic) was freshly dissolved in 1 ml 0.1N warmed HCl and the final volume was made up with 0.9 % NaCl. It has been used at dose level of 10 mg/kg i.p. and was given 30 min after the test compounds.
(§2) The anticonvulsant activity of compounds of the formula 1 in mice was measured using Pentylenetetrazole (PTZ) seizure threshold test (White, H.S. et al. In Antiepileptic Drugs, 4th ed.; L,evy, R.H. et al., Eds, Raven: New York, 1995, pp 99-121). The active compounds of the formula 1 were further tested against maximal electroshock seizure (MES), and picrotoxin induced clonic convulsions, to explore the involvement of GABA-ergic receptors in their anticonvulsant activity. The effect of compounds of the formula 1 on motor performance was studied by chimney test (Dauge, V. et al. Neuropsychopharmacology 2001, 25, 690-98). Median effective (ED50), and median sedative (TD50) were calculated.
Pentylenetetrazole (PTZ) seizure threshold test is used to evaluate the potential anticonvulsant activity of compounds of the formula 1 (White, H.S. Et al. In Antiepileptic Drugs, 4th ed.; Levy, R.H. et al., Eds, Raven: New York, 1995, pp 99-121). Each compound was tested in 4 mice groups (Swiss albino mice, 25 g body weight) for each dose level (25, 50, 100 and 200 mg/kg) and was given i.p. 30 min later, animals were received PTZ (100 mg./kg, i.p.) and observed for 30 min. A single 5 seconds episode of clonic spasms was taken as a threshold seizure. SGH-35 and SGH-40 produced 100% protection against PTZ-induced seizures, Table 1. Table 1: ED50, TD50, PI, LD50 and TI for SGH-35 and SGH-40.
(§3) In each of the chemical and the electrical methods described above, Swiss albino mice were divided into 4 groups (N = 4 animals). Each group was injected (i.p.) with one of the four selected doses that have proven to obtain a variable percentage of protection […] before the convulsants. The effective dose 50 (ED50) i.e. the dose that protected half of the animals was then calculated using the log-probit method (White, H.S. et al. In Antiepileptic Drugs, 4th ed.; Levy, R.H.et al., Eds, Raven: New York, 1995, pp 99-121).

[2] = Acute toxicity determination (LD50); type: in vivo; conditions: Albino Swiss, mouse, in vivo, ip, mice observed for 72 hours
Description: (§4) The acute toxicity determination (LD50) for compounds of formula 1 was performed. Compounds were given intraperitoneally (i.p.) in doses ranging from 0.1-5 mmol/kg. […] All behavioral changes and death during the observation periods were recorded. The percentage of death at each dose level was then calculated, and the LD50 values were obtained (Ghosh, M., Fundamentals of Experimental Pharmacology, Scientific Book Agency, Calcutta. 1984, pp 153-158, 187-189). The protective index (PI) and therapeutic index (TI) of each compound were calculated.
(§5) Initially the approximate LD100 of each test compound was determined. Albino Swiss mice (25 g body weight) were then divided into 4 groups (6 mice each). Each group was then injected with one of 4 selected doses the highest being the LD100 dose. The animals were then observed closely for 4 hours and then occasionally for 72 hours. The percentage of death in each group was then calculated. The LD50 doses were then calculated using the Profit method (Ghosh; M., Fundamentals of Experimental Pharmacology, Scientific Book Agency, Calcutta. 1984, pp 153-158, 187-189).
(§6) The protective index (PI) - i.e. the value that indicates the margin of safety and tolerance of the test compound was calculated by the formula: Protective index (PI) = TD50/ED50. The Therapeutic Index was calculated by the formula: Therepeutic index (TI) = LD50/ED50 (Löscher, W. et al. Epilepsy Res. 1991, 9, 1-10).

Albino Swiss mice = test: Acute toxicity determination (LD50); type: in vivo; conditions: Therapeutic index = LD50/ED50 (values match the PTZ ED50)
Description: as §4, §5, §6

[3] = Minimal neurotoxicity (chimney test), motor performance; type: in vivo, mice; conditions: Swiss albino, mouse, in vivo, ip; median sedative dose; chimney test at 15 and 25 min after i.p. administration
Description: as §2
(§7) The effect of SGH-35 and SGH-40 on motor performance was studied by chimney test (Dauge, V. et al. Neuropsychopharmacology 2001, 25, 690-98). At 15 and 25 min after i.p. administration of compounds SGH-35 and SGH-40, the inability of mice to climb up backwards in a glass tube of 25 cm length and 3 cm inner diameter within 30 sec was recorded and taken as a measure of neurological deficits. Normal mice climb up in 5-10 sec. The dose that impaired the motor coordination in 50% of the animals tested was labeled as the median toxin dose 50 (TD50).

Swiss albino mice [4] = test: as above; type: in vivo; conditions: median sedative dose; chimney test at 15 and 25 min after i.p. administration
Description: as §2, §7

Swiss albino mice [5] = test: Maximal electroshock (MES) seizure test; type: in vivo; conditions: for % Protection: MES applied 30 min after compound i.p., dose SGH-35 200 mg/kg (0.78 mmol/kg), SGH-40 100 mg/kg (0.38 mmol/kg), 4 animals; for ED50: Mus musculus, ip, MES, median effective dose, log-probit method; for PI: Protective index = TD50/ED50, MES ED50
Description: as §2
The maximal electroshock (MES) seizure is one of the electrical test used to evaluate anticonvulsant activity (White, H.S. et al. In Antiepileptic Drugs, 4th ed.; Levy, R.H. et al., Eds, Raven New York, 1995, pp 99-121). […] Swiss albino mice (25 g body weight) were injected with 25, 50, 100 and 200 mg/kg of SGH-35 and SGH-40 i.p. 30 min later, mice were restrained by hand and subjected to electric shock through their ears, and released immediately following electrical stimulation, to permit observation of the maximal seizure. The maximal seizure typically consists of a short period of initial tonic flexioni and a prolonged period of tonic extension (especially the hind limb). Protection was defined as complete absence of hind limb tonic extension (Table 1).
as §3

Swiss albino mice [6] = test: animal or person; type: in vivo; conditions: for ED50: Mus musculus, ip; for % Protection: Picrotoxin (8 mg/kg, IP) given 30 min after compound i.p., dose SGH-35 200 mg/kg (0.78 mmol/kg), SGH-40 100 mg/kg (0.38 mmol/kg), 4 animals; for PI: Protective index = TD50/ED50, Pic ED50
Description: as §1, §2
Swiss albino mice (25 g body weight) were injected with 25, 50, 100 and 200 mg/kg of SGH-35 and SGH-40 (4 mice, i.p.). 30 min later, animals were injected sc with Pic (10 mg/kg) and observed for 30 min and the percentage protection against convulsive seizures for each compound was calculated (Table I).
as §3

| SMILES | ED50 (Swiss albino mice [1]) | % Protection (Swiss albino mice [1]) | PI (Swiss albino mice [1]) | LD50 at 72 h [2] | TI (Albino Swiss mice) | TD50 [3] | TD50 (Swiss albino mice [4]) | % Protection (Swiss albino mice [5]) | ED50 (Swiss albino mice [5]) | PI (Swiss albino mice [5]) | ED50 (Swiss albino mice [6]) | % Protection (Swiss albino mice [6]) | PI (Swiss albino mice [6]) |
| --- | --- | --- | --- | --- | --- | --- | --- | --- | --- | --- | --- | --- | --- |
| CCOC(=O)C1=C(C)N2CCCC(=O)N=C2S1 [SGH-35, Ethyl 3-methyl-8-oxo-5,6,7,8-tetrahydro-thiarolo[3,2-a][1,3]diazepinie-2-carboxylate] | 127 ± 9.3 mg/kg | 100% | 1.57 | 670 mg/kg | 5.28 | 200 ± 12.3 mg/kg | 200 ± 12.3 mg/kg | 100% | 90 ± 5.7 mg/kg | 2.22 | 148 ± 11.1 mg/kg | 100% | 1.35 |
| CC1=C(Br)SC2=NC(=O)CCCN21 [SGH-40, 2-Bromo-3-methyl-6,7-dihydro-thiazolo[3,2-a][1,3]diazepin-8(5H)-one] | 112 ± 3.9 mg/kg | 100% | 1.51 | 640 mg/kg | 5.71 | 170 ± 6.9 mg/kg | 170 ± 6.9 mg/kg | 100% | 78 ± 4.1 mg/kg | 2.17 | 129 ± 6.1 mg/kg | 100% | 1.31 |
